The record followed here is patent US7250428B2, “Cetylpyridinium salt of an anti-inflammatory agent and pharmaceutical compositions containing it” (Aziende Chimiche Riunite Angelini Francesco A.C.R.A.F. …, priority 2003, dated 2007).

The data set can be described thus: stability in the presence of water. Type of data set: physicochemical.

For `CCCCCCCCCCCCCCCC[n+]1ccccc1.O=C([O-])Cc1ccccc1Nc1c(Cl)cccc1Cl` [cetylpyridinium salt of diclofenac, cetylpyridinium (1-hexadecylpyridinium) salt of diclofenac], the “stability in the presence of water” value is reported as “virtually infinite”.
